Consider 20 molecules from US20260049078A1, “DIFLUORO- AND TRIFLUORO-ACETYL HYDRAZIDES AS SELECTIVE HDAC6 INHIBITORS” (ITALFARMACO S.P.A., priority 2022, published 2026).

The structures appear in SMILES notation. pEC50, pIC50: −log10 of the molar value. Bounds are passed on as bounds.

The target of one data set is recombinant human HDAC6 (Homo sapiens (Human), UniProt Q9UBN7). Kind of data set: Enzyme inhibitory activity assay on HDAC6. The settings on record: 30 minutes preincubation at 25° C. It counts as biochemical. On the procedure:
(§1) For each test compound, 100× concentrated DMSO solutions at 8 doses were prepared and then diluted in assay buffer (25 mM Tris-HCl, pH 8, 130 mM NaCl, 0.05% Tween-20, 10% Glycerol) to obtain 5× concentrated solutions in relation to the final concentrations (typical final concentration range—6.4-200000 nM or 0.18-50000 nM, final DMSO content—1%). Then 10 μL solution of each test compound concentration were placed on a 96-well plate in triplicate and 15 μL of 3.33× concentrated enzyme solution in the assay buffer containing 3.33× concentrated BSA (final BSA concentration 1 mg/mL) and, in case of HDAC6, 3.33× concentrated TCEP (final TCEP concentration—200 μM) were added to each well. After a period of preincubation at 25° C. (30 minutes for HDAC6 and 120 minutes for HDAC1), 25 μL of solution containing the substrate were added. As substrate, FLUOR DE LYS® deacetylase substrate (Enzo Life Sciences, cat: BML-KI104, FdL), FLUOR DE LYS®-Green substrate (Enzo Life Sciences, cat: BML-KI572, FdL_G) or Boc-Lys(Tfa)-AMC (Bachem, cat: 4060676.005, Tfal)—2× concentrated solution in assay buffer were used. Following a reaction period (30 minutes at 25° C.), 50 μL of the development solution consisting of concentrate FLUOR DE LYS® developer I (Enzo Life Sciences, ca: BML-KI105), diluted 200 times in buffer (50 mM Tris-HCl, pH 8, 137 mM NaCl, 2.7 mM KCl, 1 mM MgCl2) plus 2 μM TSA was added and, after 25 minutes at room temperature in the dark, using the Victor 1420 Multilabel Counter Perkin Elmer Wallac instrument, the fluorescence reading was carried out (excitation/emission: 485/535 nM—Fluor de Lys Green, 355/460 nM—Tfal, Fluor de Lys).
(§2) Enzymatic activity on recombinant human HDAC6 and HDAC1 was evaluated (Table 2) for each synthesized compound.

Data set [1] has as its system human B cell precursor leukemia 697. Description: In vitro α-tubulin acetylation in 697 cell line. It counts as cell-based. The following applies: Homo sapiens, B-cell, 16 h; read-out: TubAc 697 cells EC50. On the procedure: The in vitro α-tubulin acetylation was evaluated on human B cell precursor leukemia 697.
The 697 cells were maintained in RPMI Medium 1640 (Gibco, cat: 21875-034) supplemented with 10 mM HEPES (Gibco, cat: 15630-080), Pen-Strep (Penicillin 100 U/ml, Streptomycin 100 μg/ml, Gibco, cat: 15140-122) and 10% fetal bovine serum (Gibco, cat: 10270-106).
The cells were plated in 12-well plates (Costar, cat: 3512) at the density of 5.5×10^5 cells/ml.
Serial dilutions of test compounds in DMSO were prepared using 20 mM stock solutions to obtain 8 doses 200× concentrated in respect to final doses (2.7-100000 nM). Then the DMSO solutions were diluted 10× in culture medium to obtain 20× concentrated solutions which were used for cells treatment (125 μl of medium solutions were added to 2.375 ml of cells suspension). The final DMSO content was set as 0.5%. The plates were incubated at 37° C., 5% CO2 for 16 hours.
At the end of the incubation period, the cells were harvested and centrifuged for 5 minutes at 200×g and washed with 0.9% NaCl at 4° C. The resulting pellet was treated for 30 minutes at 4° C. with 100 μl Complete Lysis-M buffer containing protease inhibitors (Complete Lysis-M Roche+Complete Tablets, Mini Easypack, cat: 4719956001) and phosphatase inhibitor cocktails (PhosStop Easypack, Roche, cat: 4906837001) and then centrifuged 10 minutes at 18213×g. The protein concentration in each supernatant was determined using BCA Protein Assay Kit (Pierce, cat: 23227). The samples were diluted in PBS 1× to obtain 2 μg/ml concentration and coated in MaxiSorp 96-well plates (Nunc, cat: 442404). The plates were incubated overnight at room temperature.
Plates were washed twice with Wash Buffer (PBS 1×+0.005% tween 20) and saturated for 1 hour at room temperature with 300 μL of 1×PBS containing 10% FBS. After washing twice with Wash Buffer, the plates were incubated for 2 hours at room temperature in the presence of 100 μl/well either anti-acetylated-α-tubulin antibody (Monoclonal Anti-Tubulin, Acetylated antibody produced in mouse, Sigma-Aldrich, cat: T6793) or total anti-α-tubulin antibody (Monoclonal Anti-α-Tubulin produced in mouse, Sigma-Aldrich, cat: T6074) diluted 1:1000 in 1×PBS containing 10% FBS. Following 5 washing cycles with Wash Buffer the secondary antibody conjugated with the enzyme HRP (Goat anti-Mouse IgG, IgM, IgA (H+L), stock concentration 0.5 mg/ml, Thermo Fisher Scientific, cat: A10668), diluted 1:1000 in 1×PBS+10% FBS was added at the volume of 100 μl/well. After two hours of incubation at room temperature the plates were washed 4 times with Wash Buffer, then 100 μl/well of TMB substrate (TMB substrate kit, Thermo Fisher Scientific, cat: 34021) was added for 10 minutes at room temperature in the dark. The reaction was stopped by adding 50 μl of 2M H2SO4. The plates were read in BioTek Synergy H1 multimode microplate reader at a wavelength of 450 nm.
The measured absorbance was corrected by subtracting the mean of blank values (samples without the primary antibody). The absorbance ratios of acetyl to total tubulin assays were calculated and normalized to the reference compound (positive control) 4 parameter logistic curve, where 0% is the fitted bottom and 100% is the fitted top of the curve. The results are expressed as relative EC50.

The target of the next data set is recombinant human HDAC1 (Homo sapiens (Human), UniProt Q13547). Kind of data set: Enzyme inhibitory activity assay on HDAC1. It counts as biochemical. The following applies: 120 minutes preincubation at 25° C. The method, then:
as §1, §2

A further data set relates to HDAC6. Kind of data set: Kinetic of prodrug disappearing when incubated with HDAC6 (LC-HRMS). The settings on record: HDAC6 1 μM, 5 μM compound, 25° C.; for half-life at 5 µM: HDAC6 enzyme in assay buffer, read-out: T1/2 of prodrug disappearing. It counts as biochemical. The method, then: The LC-HRMS analysis was carried out using a Vanquish Flex UHPLC (Thermo Fisher Scientific) and a high-resolution mass spectrometer Orbitrap QExactive Focus (Thermo Fisher Scientific), equipped with a Heated Electrospray Ionization, operated in positive mode. A Full Scan analysis was set in the m/z range 50-500 amu. A XSelect HSS T3 50×2.1 mm, 2.5 μm chromatographic column (Waters) was used. Mobile phase A consisted of 0.1% formic acid in water and mobile phase B in 0.1% formic acid in acetonitrile. The flow rate was set to 0.5 mL/min, with a gradient program from 3 to 20% B in 3 minutes.

recombinant human HDAC1, sequence (Q13547 whole entry): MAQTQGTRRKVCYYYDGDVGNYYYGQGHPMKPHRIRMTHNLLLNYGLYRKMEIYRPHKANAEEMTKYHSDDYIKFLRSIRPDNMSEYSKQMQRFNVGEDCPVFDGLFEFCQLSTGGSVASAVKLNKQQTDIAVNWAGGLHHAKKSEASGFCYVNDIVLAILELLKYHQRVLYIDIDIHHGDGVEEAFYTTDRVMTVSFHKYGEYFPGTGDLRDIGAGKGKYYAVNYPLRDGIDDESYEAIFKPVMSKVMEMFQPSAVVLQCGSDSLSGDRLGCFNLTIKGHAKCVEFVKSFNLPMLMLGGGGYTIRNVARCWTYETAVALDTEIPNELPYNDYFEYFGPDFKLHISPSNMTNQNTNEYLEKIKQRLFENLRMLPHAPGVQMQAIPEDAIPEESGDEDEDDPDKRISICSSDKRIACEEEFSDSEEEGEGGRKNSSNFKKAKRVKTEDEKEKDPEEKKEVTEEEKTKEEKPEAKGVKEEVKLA
recombinant human HDAC6, sequence (Q9UBN7 whole entry): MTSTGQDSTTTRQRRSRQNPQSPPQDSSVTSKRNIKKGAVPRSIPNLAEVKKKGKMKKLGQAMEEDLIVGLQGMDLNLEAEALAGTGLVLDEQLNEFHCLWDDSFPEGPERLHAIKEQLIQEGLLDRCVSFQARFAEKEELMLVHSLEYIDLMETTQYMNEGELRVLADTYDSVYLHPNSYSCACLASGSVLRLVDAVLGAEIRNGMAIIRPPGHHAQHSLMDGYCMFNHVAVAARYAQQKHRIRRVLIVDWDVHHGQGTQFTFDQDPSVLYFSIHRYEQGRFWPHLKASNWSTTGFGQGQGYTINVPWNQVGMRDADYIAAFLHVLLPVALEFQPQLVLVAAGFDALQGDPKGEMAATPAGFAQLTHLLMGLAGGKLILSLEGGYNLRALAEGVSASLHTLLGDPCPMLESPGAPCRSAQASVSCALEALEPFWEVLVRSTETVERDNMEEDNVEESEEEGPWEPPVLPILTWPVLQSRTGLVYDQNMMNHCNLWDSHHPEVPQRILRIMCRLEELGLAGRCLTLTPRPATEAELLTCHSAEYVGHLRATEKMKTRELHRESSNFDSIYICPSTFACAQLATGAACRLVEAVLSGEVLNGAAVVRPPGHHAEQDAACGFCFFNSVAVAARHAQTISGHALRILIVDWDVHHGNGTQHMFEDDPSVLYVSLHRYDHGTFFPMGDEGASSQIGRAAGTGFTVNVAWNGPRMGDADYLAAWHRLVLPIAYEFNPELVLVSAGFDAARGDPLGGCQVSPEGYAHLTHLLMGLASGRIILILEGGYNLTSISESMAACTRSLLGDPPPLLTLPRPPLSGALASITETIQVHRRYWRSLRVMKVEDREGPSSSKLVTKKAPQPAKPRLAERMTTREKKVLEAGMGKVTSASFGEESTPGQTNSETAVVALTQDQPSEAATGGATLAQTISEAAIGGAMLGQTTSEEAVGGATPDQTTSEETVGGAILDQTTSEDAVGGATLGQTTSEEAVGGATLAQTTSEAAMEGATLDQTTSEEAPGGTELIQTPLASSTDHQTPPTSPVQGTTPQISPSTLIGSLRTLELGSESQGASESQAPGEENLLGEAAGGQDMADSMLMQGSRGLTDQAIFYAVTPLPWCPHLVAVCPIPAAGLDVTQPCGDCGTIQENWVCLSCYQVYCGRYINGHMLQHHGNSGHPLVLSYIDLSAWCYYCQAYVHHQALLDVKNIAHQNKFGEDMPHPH

As to `FC(F)c1nnc(-c2ccc(Cn3cc(-c4cccc5[nH]ncc45)nn3)nc2)o1` [Compound 34-A], the negative-log IC50 (pIC50) on recombinant human HDAC6 was 7.70; at recombinant human HDAC1, less than 4.00. Besides, the pEC50 in data set [1] was 6.78.

Consider `Nc1ccc(-c2cn(Cc3ccc(-c4nnc(C(F)F)o4)cc3F)nn2)cn1` [Compound 47-A], for which, in data set [1], the pEC50 was 6.06. For the same molecule, the “percentage of compound concentration (prodrug remaining)” value (“percentage … (prodrug remaining)” below) in the data set with HDAC6 (time 0 min) was found to be 100.00%; in the data set with HDAC6 (time 30 min), 53.6%; in the data set with HDAC6 (time 60 min), 29.7%; in the data set with HDAC6 (time 120 min) it was 7.4%; with HDAC6 (time 240 min), 0.4%; with HDAC6 (time 360 min), 0.0%. Also, the “percentage … (prodrug remaining)” value in the data set with HDAC6 (time 480 min) is listed as 0.0%. Besides, the half-life at 5 µM in the data set on HDAC6 was found to be 29.3 min. At recombinant human HDAC1, the pIC50 is less than 4.00.

Consider `Fc1cc(-c2nnc(C(F)F)o2)ccc1Cn1cc(-c2cccc3[nH]ccc23)nn1` [Compound 36-A], for which the pIC50 was 7.27 on recombinant human HDAC6 and less than 4.00 at recombinant human HDAC1. For the same molecule, in data set [1], the pEC50 was 6.78.

Take `Nc1ccc(-c2cn(Cc3c(F)cc(-c4nnc(C(F)F)o4)cc3F)nn2)cn1` [Compound 46-A]: the pEC50 in data set [1] is 6.10. In addition, the “percentage … (prodrug remaining)” value in the data set with HDAC6 (time 0 min) was 100.00%; in the data set on HDAC6 (time 30 min) it was 42.4%; in the data set on HDAC6 (time 60 min) it was 17.4%; in the data set on HDAC6 (time 120 min) it was 2.7%; in the data set on HDAC6 (time 240 min) it was 0.0%; in the data set with HDAC6 (time 360 min) it was 0.0%. Besides, the “percentage … (prodrug remaining)” value in the data set on HDAC6 (time 480 min) stood at 0.0%. Further, the half-life at 5 µM with HDAC6 stood at 22.9 min. For the same molecule, the negative logarithm of the IC50 (pIC50) on recombinant human HDAC1 is less than 4.00.

As to `Nc1ccc(-c2cn(Cc3ccc(-c4nnc(C(F)F)o4)s3)nn2)cn1` [Compound 49-A], the pEC50 in data set [1] was 7.54.

With `Nc1ccc(-c2cn(Cc3ccc(-c4nnc(C(F)(F)F)o4)cc3F)nn2)cn1` [Compound 43-A], the half-life at 5 µM in the data set on HDAC6 came out at 23.1 min.

Take `Fc1cc(-c2nnc(C(F)F)o2)cnc1Cn1cc(-c2ccccn2)nn1` [Compound 15-A]: the pIC50 was 7.00 at recombinant human HDAC6 and less than 4.00 on recombinant human HDAC1.

In the case of `CC(c1ccc(-c2nnc(C(F)F)o2)cc1F)n1cc(-c2ccc3nc(N)sc3c2)nn1` (stereo not shown) [Compound 30-A, 6-(1-(1-(4-(5-(difluoromethyl)-1,3,4-oxadiazol-2-yl)-2-fluorophenyl)ethyl)-1H-1,2,3-triazol-4-yl)benzo[d]thiazol-2-amine], the pEC50 in data set [1] was 5.86.

For the molecule `FC(F)c1nnc(-c2ccc(Cn3cc(-c4cccs4)nn3)nc2)o1` [Compound 19-A], the pIC50 is 7.51 on recombinant human HDAC6 and less than 4.00 at recombinant human HDAC1. In addition, the pEC50 in data set [1] is 6.24.

`Nc1ccc(-c2cn(Cc3ccc(-c4nnc(C(F)(F)F)o4)c(F)c3)nn2)cn1` [Compound 44-A]: the half-life at 5 µM with HDAC6 was found to be 11.3 min.

Turning to `Cc1cccc(-c2cn(Cc3ccc(-c4nnc(C(F)F)o4)cn3)nn2)c1` [Compound 9-A], the pIC50 at recombinant human HDAC6 was 7.40; at recombinant human HDAC1 it was less than 4.00. For the same molecule, in data set [1], the pEC50 was 6.41.

In the case of `FC(F)c1nnc(-c2ccc(Cn3nnc(-c4cccs4)n3)nc2)o1` [Compound 17-A], the values for the pIC50 on recombinant human HDAC6 and on recombinant human HDAC1 were 7.39 and less than 4.00, respectively. The pEC50 in data set [1] was 6.19.

For the molecule `Cc1ccc(-c2cn(Cc3ccc(-c4nnc(C(F)F)o4)cn3)nn2)cc1` [Compound 8-A], the pIC50 at recombinant human HDAC6 was 7.19; on recombinant human HDAC1, less than 4.00. The pEC50 in data set [1] is 6.38.

As for `FC(F)c1nnc(-c2ccc(Cn3cc(-c4ccc5[nH]ccc5c4)nn3)nc2)o1` [Compound 27-A], the figures for the pIC50 at recombinant human HDAC6 and at recombinant human HDAC1 were 7.82 and less than 4.00, respectively. Also, the pEC50 in data set [1] was 6.92.

For `CC(=O)Nc1cccc(-c2cn(Cc3ccc(-c4nnc(C(F)F)o4)cc3F)nn2)c1` [Compound 12-A], the negative logarithm of the IC50 (pIC50) at recombinant human HDAC6 was 7.24; on recombinant human HDAC1 it was less than 4.00. Also, in data set [1], the pEC50 was 6.46.

For `Nc1nc2ccc(-c3cn(Cc4ccc(-c5nnc(C(F)F)o5)c(Cl)c4)nn3)cc2s1` [Compound 31-A], the half-life at 5 µM in the data set on HDAC6 was determined as 129 min.

Turning to `Nc1ccc(-c2cn(Cc3c(F)cc(-c4nnc(C(F)(F)F)o4)cc3F)nn2)cn1` [Compound 42-A], in the data set on HDAC6, the half-life at 5 µM was 40.5 min.

On to `FC(F)c1nnc(-c2ccc(Cn3nnc(-c4ccccc4)n3)nc2)o1` [Compound 16-A], for which the pIC50 on recombinant human HDAC6 was 7.40; on recombinant human HDAC1, less than 4.00. Besides, in data set [1], the pEC50 was 5.96.

On to `Fc1cc(-c2nnc(C(F)F)o2)cnc1Cn1cc(-c2cccc3[nH]ccc23)nn1` [Compound 40-A], for which the values for the pIC50 on recombinant human HDAC6 and at recombinant human HDAC1 were 7.36 and less than 4.00, respectively. In addition, the pEC50 in data set [1] was 6.07.

On to `Fc1cccc(-c2cn(Cc3ccc(-c4nnc(C(F)F)o4)cn3)nn2)c1` [Compound 18-A], for which the pIC50 on recombinant human HDAC6 was 7.25; on recombinant human HDAC1 it was less than 4.00. Besides, in data set [1], the negative-log EC50 (pEC50) is 6.24.

One may read the pIC50 as the negative decadic logarithm of the IC50, by convention in mol/L. A word on the pEC50: it is −log10 of the EC50, conventionally taken in molar units.
